Measured values from US10166214B2, “Somatostatin receptor subtype 4 (SSTR4) agonists” (Centrexion Therapeutics Corporation, priority 2013, dated 2019).

Assays:
[1] = Metabolic stability in pooled human liver microsomes (half-life); format: in vitro ADME; conditions: 1 μM test compound; for Half-life t1/2: 37° C.; for half-life at 1 μM: pH 7.6, 37° C., read-out: Half-life t1/2
Experimental: The metabolic stability of the compounds according to the invention may be investigated as follows:
The metabolic degradation of the test compound is assayed at 37° C. with pooled human liver microsomes. The final incubation volume of 100 μl per time point contains TRIS buffer pH 7.6 at room temperature (0.1 M), magnesium chloride (5 mM), microsomal protein (1 mg/mL) and the test compound at a final concentration of 1 μM. Following a short preincubation period at 37° C., the reactions are initiated by addition of beta-nicotinamide adenine dinucleotide phosphate, reduced form (NADPH, 1 mM), and terminated by transferring an aliquot into solvent after different time points. After centrifugation (10000 g, 5 min), an aliquot of the supernatant is assayed by LC-MS/MS for the amount of parent compound. The half-life is determined by the slope of the semi-logarithmic plot of the concentration-time profile.

[2] = target: human Somatostatin 4 receptor (SSTR4) (Homo sapiens (Human), UniProt P31391); experiment: cAMP assay with human somatostatin 4 receptor (hSSTR4 expressing H4 cells); format: cell-based; conditions: read-out: SSTR4 agonism EC50
Chain of human Somatostatin 4 receptor (SSTR4) (P31391 whole entry): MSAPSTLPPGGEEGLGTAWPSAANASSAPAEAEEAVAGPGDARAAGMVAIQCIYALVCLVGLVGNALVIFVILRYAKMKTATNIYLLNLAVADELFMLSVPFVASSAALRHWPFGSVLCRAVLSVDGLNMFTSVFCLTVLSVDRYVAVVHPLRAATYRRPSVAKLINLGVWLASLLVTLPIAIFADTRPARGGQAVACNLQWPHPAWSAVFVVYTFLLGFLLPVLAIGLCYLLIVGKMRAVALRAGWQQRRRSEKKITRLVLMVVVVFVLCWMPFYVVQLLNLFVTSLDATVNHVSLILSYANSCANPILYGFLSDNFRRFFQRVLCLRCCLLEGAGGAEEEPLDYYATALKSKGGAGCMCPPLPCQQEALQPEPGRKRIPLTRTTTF
Experimental: Method Description for cAMP Assay with Human Somatostatin 4 Receptor
The activation of the SSTR4 receptor (Gi coupled) causes an inhibition of intracellular cAMP after stimulation with Forskolin, which can be quantifiable by use of a suitable assay Kit and an adequate plate reader. This technique is used to characterize pharmacological effects of the SSTR4 receptor agonists by use of hSSTR4 expressing H4 cells.
Compounds are dissolved and diluted in DMSO. The final test solution contains 1% DMSO. […] Cells are centrifuged and suspended in assay buffer (incl. 1:100 diluted Alexa antibody).
For the assay 5 μl of a cell suspension (approximately 5000 cells/well)—incl. Alexa antibody (diluted 1:100) are added into a 384 well MTP microtitre plate excepting one row or column (depending on the plate layout), which is reserved for the standard curve. Then 2 μl of compound sample is added as concentration response curve (e.g. 1e-5 M to 6e-10 M), usually in triplicates. Each assay contains incubations with vehicle controls instead of compound as controls for non-inhibited cAMP generation (100% CTL; ‘high values’) and incubations with 1 μM Somatosatin as controls for full inhibition and background (0% CTL; ‘low values’). […] Then the plates are shaken briefly and incubated for 60 min at room temperature. After 60 min 10 μl of the detection mix is added into all wells followed by an additional incubation period of 1 h. The plates are read in a suitable plate reader.
From this ratio, cAMP concentrations are calculated from standard curve and the EC50 is estimated by least square curve fit program.

human SSTR4 = human SSTR4 (Homo sapiens (Human), UniProt P31391); experiment: Radioligand binding assay, CHO cell membranes expressing recombinant human SSTR4; conditions: [3-125I-Tyr]-Somatostatin-(1-14)
Chain of human SSTR4 (P31391 whole entry): as above
Experimental: Receptor binding assays refer to a technique in which labeled receptor ligands are used to detect binding to a receptor. In competition experiments test compounds, which are not labeled, compete with the binding side of a labeled ligand. The displacement of the labeled ligand by the test compound leads to a decreased signal.
For the binding experiments 200 μL of membrane homogenate from one of the following protein amounts is used: hSSTR1 (40 μg/well); hSSTR2 (25 μg/well); hSSTR3 (1.5 μg/well); hSSTR4 (0.5 μg/well); hSSTR5 (25 μg/well). […] The protein-bound radioactivity is measured in a suitable reader. The non-specific binding is defined as radioactivity bound in the presence of 1 μM Somatostatin-14 during the incubation period.
The analysis of the concentration-binding curves is performed by computer-assisted nonlinear least square curve fitting method using the model of one receptor binding site.

Row | SMILES | Half-life t1/2 [1] | also measured
1 | Cc1cccnc1C(C)(C)NC(=O)[C@H]1[C@@H]2CNC[C@@H]21.Cl.Cl [Example 25] | >2.17 h | –
2 | CC(C)(NC(=O)[C@H]1[C@@H]2CNC[C@@H]21)c1n[nH]c2ccccc12 [Example 94] | – | half-life at 1 μM [1]: > 2.17 h; EC50 [2]: 1.6 nM
3 | CC(C)(NC(=O)[C@H]1[C@@H]2CNC[C@@H]21)c1ncc2c(F)cccn12.Cl [Example 133] | >2.17 h | –
4 | CC(C)(NC(=O)[C@H]1[C@@H]2CNC[C@@H]21)c1nc(C2CC2)c2ccccn12.Cl [Example 120] | >2.17 h | –
5 | Cc1nc(C(C)(C)NC(=O)[C@H]2[C@@H]3CNC[C@@H]32)c2ccccc2n1 [Example 138] | >2.17 h | –
6 | CC(C)(COc1cccnc1C(F)(F)F)NC(=O)[C@H]1[C@@H]2CNC[C@@H]21.Cl [Example 18] | >2.17 h | –
7 | Cc1ncccc1OCC(C)(C)NC(=O)[C@H]1[C@@H]2CNC[C@@H]21.Cl [Example 44] | >2.17 h | –
8 | CC(C)(NC(=O)[C@H]1[C@@H]2CNC[C@@H]21)c1noc2c(F)cccc12 [Example 101] | >2.17 h | –
9 | CC(C)(NC(=O)[C@H]1[C@@H]2CNC[C@@H]21)c1ccnc2ccccc12.Cl [Example 21] | >2.17 h | –
10 | CCc1ccccc1OCC(C)(C)NC(=O)[C@H]1[C@@H]2CNC[C@@H]21 [Example 39] | >2.17 h | –
11 | Cc1cc(C2CC2)ccc1OCC(C)(C)NC(=O)[C@H]1[C@@H]2CNC[C@@H]21 [Example 65] | – | half-life at 1 μM [1]: > 2.17 h
12 | CC(C)(NC(=O)[C@H]1[C@@H]2CNC[C@@H]21)c1nccc2ccccc12.Cl [Example 24] | >2.17 h | –
13 | Cc1ccnnc1OCC(C)(C)NC(=O)[C@H]1[C@@H]2CNC[C@@H]21.Cl [Example 67] | >2.17 h | –
14 | O=C(NC1CCCCC1c1ccccc1)[C@H]1[C@@H]2CNC[C@@H]21 (stereo partly drawn) [Example 9] | – | EC50 [2]: 536 nM
15 | CC(C)(NC(=O)[C@H]1[C@@H]2CNC[C@@H]21)c1ncccc1C(F)(F)F.Cl [Example 23] | >2.17 h | –
16 | CC(C)(NC(=O)[C@H]1[C@@H]2CNC[C@@H]21)c1cnc2ccccn12.Cl [Example 20] | >2.17 h | –
17 | Cc1cccn2c(C(C)(C)NC(=O)[C@H]3[C@@H]4CNC[C@@H]43)ncc12.Cl [Example 126] | >2.17 h | –
18 | Cc1cc2ccccc2c(C(C)(C)NC(=O)[C@H]2[C@@H]3CNC[C@@H]32)n1.Cl [Example 22] | >2.17 h | –
19 | Cc1cccc2c(C(C)(C)NC(=O)[C@H]3[C@@H]4CNC[C@@H]43)n[nH]c12 [Example 93] | – | Ki (human SSTR4): 3.6 nM; half-life at 1 μM [1]: > 2.17 h; EC50 [2]: 0.1 nM
20 | CC(C)(NC(=O)[C@H]1[C@@H]2CNC[C@@H]21)c1n[nH]c2c(C(F)(F)F)cccc12 [Example 110] | – | half-life at 1 μM [1]: > 2.17 h; EC50 [2]: 0.7 nM
21 | CC(C)(NC(=O)[C@H]1[C@@H]2CNC[C@@H]21)c1ncc2ccccn12.Cl [Example 68] | >2.17 h | –
22 | Cc1cccn2c(C(C)(C)NC(=O)[C@H]3[C@@H]4CNC[C@@H]43)nc(C)c12.Cl [Example 130] | – | half-life at 1 μM [1]: > 2.17 h; EC50 [2]: 0.3 nM
